Source: patent US12630520B2, “Left-handed bicyclic morpholine and salt thereof, preparation method therefor, pharmaceutical composition, and use” (Institute of Materia Medica, Chinese Academy of Medical …, priority 2019, dated 2026)
Several values for one entry are separate records, joined by “and”; a condition that tells them apart may be missing. Equal entries are not always repeated.

Legend:
HepG2 cells [1] = assay: Toxicity to HepG2 cells (cell survival rate, 48 h); format: cell-based, human; conditions: HepG2, 10 μM, not significantly toxic
Excerpt: The concentration was utilized to investigate the protective effects on APAP injured hepatocytes.
The concentration was utilized to investigate the protective effects on CCl4 injured hepatocytes.

HepG2 cells [2] = assay: 4-Acetamidophenol (APAP)-induced in vitro hepatocyte injury, MTT and LDH; format: cell-based, human; conditions: 8 mM APAP; for LDH level in the cell culture supernatant: HepG2, 10 uM, 24 h (the FIGURE); for Survival rates (%) / OD Mean ± SD / Cell survival rate increase (%): HepG2, 10 μM; for Survival rates (%) / OD Mean ± SD: 24 h, MTT; for OD Mean ± SD: 570 nm; for Cell survival rate increase (%): versus model group
Experimental: Human liver cancer HepG2 cell well retained the characteristics of normal human hepatocytes, and they were grown in a DMEM medium containing 10% of fetal calf cerium (containing 100 U/mL of penicillin and 100 μg/mL of streptomycin) at the culturing conditions: 37° C., 5% of CO2 and a saturated humidity. A solution containing 0.25% of trypsin and 0.02% of EDTA was used for digestions and passages.
A MTT method was adopted. The HepG2 cells were inoculated in a 96-well cell culture plate, and after 24 hour cultures, the (+)IMM-H014, the (−)IMM-H014 and the (±)IMM-H014 were added in a non-toxic concentration whilst the 4-acetamidophenol (APAP, a final concentration of 8 mM) was added thereto. A Bicyclol positive control group, a solvent control group and a model group were set for the experiment. The culture was continued for 24 h. 100 μL of the culture solution was taken and centrifuged, and a full-automatic biochemical analyzer in a LDH detection kit was utilized to detect the LDH level therein. The remaining culture solution was discarded, and to each well, 100 μL of a MTT (0.5 mg/mL) solution was added to continue the culture for 4 hours. The MTT solution was discarded, and to each well, 150 μL of DMSO was added. The mixture was oscillated by a mixing oscillator, and the absorbance value was measured at a wavelength of 570 nm in a microplate reader. Cell survival rate (%)=(OD mean of administration group/OD mean of solvent control group)×100%.
The data were presented as a number mean±standard deviation (x±SD).

[3] = test system: ethionine-induced non-alcoholic fatty liver; assay: Ethionine-induced mouse non-alcoholic fatty liver model; format: in vivo; conditions: for TC (mmol/gprot): mouse liver tissue cholesterol; for TC (mmol/gprot) / TG (mmol/gprot): 200 mg/kg intragastric once a day x3, 250 mg/kg ethionine; for TG (mmol/gprot): mouse liver tissue triglyceride; for Percent TG reduction (%) / TC reduction percent (%): mouse liver tissue, 200 mg/kg, versus model group
Experimental: 1. Method for Establishment of an Ethionine-Induced Mouse Non-Alcoholic Fatty Liver Model and Method of Administration SPF-grade male ICR mice (20-22 g), after acclimatization, were randomly divided into 5 groups: a blank control group, an ethionine-induced model group, a 200 mg/kg (+)IMM-H014 group, a 200 mg/kg (−)IMM-H014 group, and a 200 mg/kg (±)IMM-H014 group, 5 mice in each group. Three days before the establishment of the models, each administration group was intragastrically administrated once per day, and it was totally administrated three times. The animals in the blank control group and the model group were intragastrically administrated with the same dose of physiological saline. Each administration dose was 10 mL/kg. One hour after the last administration, the mice in each group were intragastrically administrated with 250 mg/kg ethionine once. The administration dose was 20 ml/kg. The mice were in fasting but not in water deprivation for 24 h and then the animals waited for further treatment. 2. Determinations of the Contents of Triglyceride and Cholesterol in Liver Tissues The mice were subjected to thoracotomy to take out the livers which were washed with physiological saline at 4° C. A part of the liver tissues were prepared into a 10% liver tissue homogenate with a lysate and an electric homogenizer, wherein one part was measured according to the measurement methods of a triglyceride kit and a cholesterol kit to determine the triglyceride and cholesterol therein, and the other part was measured with a BCA protein quantification kit to determine the content of proteins therein. The triglyceride and cholesterol in the liver tissues were subjected to protein corrections. By adopting SPSS software, the data each were presented as a number mean±standard deviation (x±SD).

Row | Compound | cell survival rate (HepG2 cells [1]) [%] | LDH level in the cell culture supernatant (HepG2 cells [2]) | Survival rates (%) (HepG2 cells [2]) | OD Mean ± SD (HepG2 cells [2]) | Cell survival rate increase (%) (HepG2 cells [2]) | TC (mmol/gprot) [3] [mmol/gprot] | TG (mmol/gprot) [3] [mmol/gprot] | Percent TG reduction (%) [3] [%] | TC reduction percent (%) [3] [%] | Percent TG reduction (%) ([3]; listed as (−) IMM-H014, 200 mg/kg)
1 | COC(=O)c1cc(OC)c2c(c1-c1c(CN3CCOCC3)cc(OC)c3c1OCO3)OCO2 [(−)IMM-H014] | 90 | could reduce the LDH levels | 67.01 | 0.600 ± 0.054^###& | 74.8% | 0.061 ± 0.013 | 0.154 ± 0.040 | 39.0 | 32.4 | 39.0
2 | COC(=O)c1cc(OC)c2c(c1-c1c(CN3CCOCC3)cc(OC)c3c1OCO3)OCO2 [(+)IMM-H014] | 90 | could reduce the LDH levels | 54.58 | 0.489 ± 0.098 | 41.4% and 42.4% | 0.065 ± 0.022 | 0.235 ± 0.070 | 7.1 | 27.2 | 
3 | COC(=O)c1cc(OC)c2c(c1-c1c(CN3CCOCC3)cc(OC)c3c1OCO3)OCO2 (racemic) [(±)IMM-H014] | 90 | could reduce the LDH levels | 50.63 | 0.453 ± 0.032 | 32.1% | 0.063 ± 0.013 | 0.110 ± 0.005 | 56.6 | 30.0 | 
